Where “and” joins values, the source holds several entries; their conditions need not be identical. Identical values can stand only once. Toxic doses and inconclusive results are not listed.
System: L1210 leukemia ip in BDF1 mice, survival T/C
Assay: NCI In Vivo Anticancer Drug Screen. Data for tumor model L1210 Leukemia (intraperitoneal) in B6D2F1 (BDF1) mice
Settings: higher = longer survival
Outline: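 Antitumor effect is assessed in tumor-bearing animals. Survival in the compound arm is compared with a vehicle-dosed control arm and expressed as their quotient.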

[1] = endpoint: mean survival time, dose: 100.0 mg/kg/injection, schedule: Q01DX001 (ip), vehicle: saline
[2] = endpoint: mean survival time, dose: 200.0 mg/kg/injection, schedule: Q01DX001 (ip), vehicle: saline
[3] = endpoint: mean survival time, dose: 400.0 mg/kg/injection, schedule: Q01DX001 (ip), vehicle: saline
[4] = endpoint: mean survival time, dose: 100.0 mg/kg/injection, schedule: Q01DX009 (ip), vehicle: saline with Tween-80
[5] = endpoint: mean survival time, dose: 200.0 mg/kg/injection, schedule: Q01DX009 (ip), vehicle: saline with Tween-80

In the case of NC(Cc1ccc(N(CCCl)CCCl)cc1)C(=O)O (stereo not given), the T/C (endpoint: mean survival time, dose: 0.32 mg/kg/injection, schedule: Q01DX Z (ip), vehicle: carboxymethylcellulose (CMC)) is reported as 110 % of control, the T/C (endpoint: mean survival time, dose: 0.37 mg/kg/injection, schedule: Q01DX Z (im), vehicle: saline) is reported as 111 % of control and the T/C (endpoint: mean survival time, dose: 0.37 mg/kg/injection, schedule: Q01DX Z (ip), vehicle: saline) is reported as 111 % of control. The T/C (endpoint: mean survival time, dose: 0.37 mg/kg/injection, schedule: Q01DX Z (sc), vehicle: saline) was 104 % of control, the T/C (endpoint: mean survival time, dose: 0.5 mg/kg/injection, schedule: Q01DX010 (ip), vehicle: alkali diluted with saline) was 122 % of control and 123 % of control and the T/C (endpoint: mean survival time, dose: 0.51 mg/kg/injection, schedule: Q01DX Z (ip), vehicle: carboxymethylcellulose (CMC)) was 119 % of control. For the same molecule, the T/C (endpoint: mean survival time, dose: 0.64 mg/kg/injection, schedule: Q01DX Z (ip), vehicle: carboxymethylcellulose (CMC)) was 122 % of control, the T/C (endpoint: mean survival time, dose: 0.75 mg/kg/injection, schedule: Q01DX Z (im), vehicle: saline) was 122 % of control and the T/C (endpoint: mean survival time, dose: 0.75 mg/kg/injection, schedule: Q01DX Z (ip), vehicle: saline) was 115 % of control. For the same molecule, the T/C (endpoint: mean survival time, dose: 0.75 mg/kg/injection, schedule: Q01DX Z (sc), vehicle: saline) was 113 % of control, the T/C (endpoint: mean survival time, dose: 1.0 mg/kg/injection, schedule: Q01DX010 (ip), vehicle: alkali diluted with saline) was 123 % of control and the T/C (endpoint: mean survival time, dose: 1.0 mg/kg/injection, schedule: Q01DX Z (ip), vehicle: methylcellulose (MC)) was 151 % of control. The T/C (endpoint: mean survival time, dose: 1.25 mg/kg/injection, schedule: Q01DX010 (ip), vehicle: saline) was 118 % of control, the T/C (endpoint: mean survival time, dose: 1.28 mg/kg/injection, schedule: Q01DX Z (ip), vehicle: carboxymethylcellulose (CMC)) was 151 % of control and the T/C (endpoint: mean survival time, dose: 1.5 mg/kg/injection, schedule: Q01DX Z (sc), vehicle: saline) was 119 % of control. For the same molecule, the T/C (endpoint: mean survival time, dose: 2.5 mg/kg/injection, schedule: Q01DX009 (ip), vehicle: saline) was 123 % of control and 124 % of control, the T/C (endpoint: mean survival time, dose: 2.56 mg/kg/injection, schedule: Q01DX Z (ip), vehicle: carboxymethylcellulose (CMC)) was 166 % of control and the T/C (endpoint: mean survival time, dose: 3.0 mg/kg/injection, schedule: Q01DX006 (iv), vehicle: saline) was 119 % of control. For the same molecule, the T/C (endpoint: mean survival time, dose: 3.0 mg/kg/injection, schedule: Q01DX Z (im), vehicle: saline) was 166 % of control and 176 % of control, the T/C (endpoint: mean survival time, dose: 3.0 mg/kg/injection, schedule: Q01DX Z (ip), vehicle: saline) was 150 % of control and 201 % of control and the T/C (endpoint: mean survival time, dose: 3.0 mg/kg/injection, schedule: Q01DX Z (sc), vehicle: saline) was 161 % of control. For the same molecule, the T/C (endpoint: mean survival time, dose: 3.2 mg/kg/injection, schedule: Q01DX Z (ip), vehicle: saline) was 113 % of control, the T/C (endpoint: mean survival time, dose: 4.0 mg/kg/injection, schedule: Q01DX009 (ip), vehicle: saline) was 187 % of control and 200 % of control and the T/C (endpoint: mean survival time, dose: 5.0 mg/kg/injection, schedule: Q01DX009 (ip), vehicle: saline) was 167 % of control. The T/C (endpoint: mean survival time, dose: 5.0 mg/kg/injection, schedule: Q01DX010 (ip), vehicle: saline) was 152 % of control, the T/C (endpoint: mean survival time, dose: 6.0 mg/kg/injection, schedule: Q01DX006 (iv), vehicle: saline) was 114 % of control and the T/C (endpoint: mean survival time, dose: 6.0 mg/kg/injection, schedule: Q01DX Z (im), vehicle: saline) was 154 % of control. The T/C (endpoint: mean survival time, dose: 6.0 mg/kg/injection, schedule: Q01DX Z (ip), vehicle: saline) was 164 % of control, the T/C (endpoint: mean survival time, dose: 6.0 mg/kg/injection, schedule: Q01DX Z (sc), vehicle: saline) was 185 % of control and the T/C (endpoint: mean survival time, dose: 6.3 mg/kg/injection, schedule: Q01DX Z (ip), vehicle: saline) was 86 % of control. For the same molecule, the T/C (endpoint: mean survival time, dose: 8.0 mg/kg/injection, schedule: Q01DX001 (ip), vehicle: carboxymethylcellulose (CMC)) was 181 % of control, the T/C (endpoint: mean survival time, dose: 8.0 mg/kg/injection, schedule: Q01DX009 (ip), vehicle: saline) was 111 % of control and 122 % of control and the T/C (endpoint: mean survival time, dose: 10.0 mg/kg/injection, schedule: Q01DX009 (ip), vehicle: saline) was 167 % of control and 193 % of control. For the same molecule, the T/C (endpoint: mean survival time, dose: 10.0 mg/kg/injection, schedule: Q01DX010 (ip), vehicle: saline) was 177 % of control, the T/C (endpoint: mean survival time, dose: 12.0 mg/kg/injection, schedule: Q01DX001 (ip), vehicle: carboxymethylcellulose (CMC)) was 253 % of control and the T/C (endpoint: mean survival time, dose: 12.0 mg/kg/injection, schedule: Q01DX006 (iv), vehicle: saline) was 123 % of control. The T/C (endpoint: mean survival time, dose: 12.0 mg/kg/injection, schedule: Q01DX Z (oral), vehicle: saline) was 90 % of control, the T/C (endpoint: mean survival time, dose: 12.0 mg/kg/injection, schedule: Q01DX Z (sc), vehicle: saline) was 111 % of control and the T/C (endpoint: mean survival time, dose: 15.0 mg/kg/injection, schedule: Q01DX Z (ip), vehicle: carboxymethylcellulose (CMC)) was 172 % of control. The T/C (endpoint: mean survival time, dose: 16.0 mg/kg/injection, schedule: Q01DX009 (ip), vehicle: saline) was 93 % of control, the T/C (endpoint: mean survival time, dose: 16.0 mg/kg/injection, schedule: Q01DX Z (ip), vehicle: methylcellulose (MC)) was 90 % of control and the T/C (endpoint: mean survival time, dose: 18.0 mg/kg/injection, schedule: Q01DX001 (ip), vehicle: carboxymethylcellulose (CMC)) was 341 % of control. For the same molecule, the T/C (endpoint: mean survival time, dose: 18.0 mg/kg/injection, schedule: Q01DX001 (ip), vehicle: saline) was 202 % of control and 233 % of control, the T/C (endpoint: mean survival time, dose: 20.0 mg/kg/injection, schedule: Q01DX009 (ip), vehicle: saline) was 94 % of control and the T/C (endpoint: mean survival time, dose: 20.0 mg/kg/injection, schedule: Q01DX010 (ip), vehicle: saline) was 117 % of control. The T/C (endpoint: mean survival time, dose: 22.0 mg/kg/injection, schedule: Q01DX Z (ip), vehicle: carboxymethylcellulose (CMC)) was 87 % of control, the T/C (endpoint: mean survival time, dose: 24.0 mg/kg/injection, schedule: Q01DX006 (iv), vehicle: saline) was 123 % of control and the T/C (endpoint: mean survival time, dose: 25.0 mg/kg/injection, schedule: Q01DX001 (ip), vehicle: saline) was 118 % of control and 229 % of control and 230 % of control. For the same molecule, the T/C (endpoint: mean survival time, dose: 35.0 mg/kg/injection, schedule: Q01DX001 (ip), vehicle: saline) was 161 % of control and 240 % of control, the T/C (endpoint: mean survival time, dose: 50.0 mg/kg/injection, schedule: Q01DX001 (ip), vehicle: saline) was 87 % of control and the T/C (endpoint: median survival time, dose: 10.0 mg/kg/injection, schedule: Q01DX009 (ip), vehicle: saline) was 155 % of control and 156 % of control. The T/C (endpoint: median survival time, dose: 20.0 mg/kg/injection, schedule: Q01DX009 (ip), vehicle: saline) was 112 % of control.

With C[C@]12CCC(=O)C=C1CC[C@H]1[C@@H]3CC[C@](O)(C(=O)CO)[C@@]3(C)CC(=O)[C@@]12SC(N)=O the T/C (endpoint: mean survival time, dose: 100.0 mg/kg/injection, schedule: Q01DX001 (ip), vehicle: steriod suspending solution) was 92 % of control, the T/C (endpoint: mean survival time, dose: 200.0 mg/kg/injection, schedule: Q01DX001 (ip), vehicle: steriod suspending solution) was 92 % of control and the T/C (endpoint: mean survival time, dose: 400.0 mg/kg/injection, schedule: Q01DX001 (ip), vehicle: steriod suspending solution) was 104 % of control.

With CC(C)OC(=O)c1cccc2c1-c1ccccc1C2=O the T/C [1] was 92 % of control, the T/C [2] was 92 % of control and the T/C [3] was 95 % of control.

With CCN(CC)CCCC(C)Nc1cc(OC)cc2cccnc12 (stereo not given) the T/C (endpoint: mean survival time, dose: 10.0 mg/kg/injection, schedule: Q01DX009 (ip), vehicle: Klucel (hydroxypropylcellulose) (HPC)) was 93 % of control, the T/C (endpoint: mean survival time, dose: 20.0 mg/kg/injection, schedule: Q01DX001 (ip), vehicle: Klucel (hydroxypropylcellulose) (HPC)) was 100 % of control and the T/C (endpoint: mean survival time, dose: 20.0 mg/kg/injection, schedule: Q01DX009 (ip), vehicle: Klucel (hydroxypropylcellulose) (HPC)) was 96 % of control. For the same molecule, the T/C (endpoint: mean survival time, dose: 40.0 mg/kg/injection, schedule: Q01DX001 (ip), vehicle: Klucel (hydroxypropylcellulose) (HPC)) was 100 % of control and the T/C (endpoint: mean survival time, dose: 40.0 mg/kg/injection, schedule: Q01DX009 (ip), vehicle: Klucel (hydroxypropylcellulose) (HPC)) was 96 % of control.

For COc1cc(NC(=O)O/N=C/c2ccccn2)cc(OC)c1OC, the T/C [4] was 91 % of control and the T/C [5] was 92 % of control.

In the case of c1cnc2[nH]cnc2n1, the T/C (endpoint: mean survival time, dose: 100.0 mg/kg/injection, schedule: Q01DX009 (ip), vehicle: saline) is reported as 86 % of control, the T/C (endpoint: mean survival time, dose: 100.0 mg/kg/injection, schedule: Q04DX003 (ip), vehicle: Klucel (hydroxypropylcellulose) (HPC)) is reported as 100 % of control and the T/C (endpoint: mean survival time, dose: 200.0 mg/kg/injection, schedule: Q01DX009 (ip), vehicle: saline) is reported as 109 % of control. The T/C (endpoint: mean survival time, dose: 200.0 mg/kg/injection, schedule: Q04DX003 (ip), vehicle: Klucel (hydroxypropylcellulose) (HPC)) was 100 % of control, the T/C (endpoint: mean survival time, dose: 400.0 mg/kg/injection, schedule: Q01DX009 (ip), vehicle: saline) was 112 % of control and the T/C (endpoint: mean survival time, dose: 400.0 mg/kg/injection, schedule: Q04DX003 (ip), vehicle: Klucel (hydroxypropylcellulose) (HPC)) was 105 % of control.

COc1ccc(/C=N\NC(=O)CNC(=O)Nc2cccc(Cl)c2)cc1OC was tested, and the T/C (endpoint: mean survival time, dose: 50.0 mg/kg/injection, schedule: Q01DX009 (ip), vehicle: saline with Tween-80) was 88 % of control, the T/C [4] was 92 % of control and the T/C [5] was 88 % of control.

COC1OC2COc3ccccc3OC2C2C1N2C(c1ccccc1)N1C2C(OC)OC3COc4ccccc4OC3C21 (stereo not given) was tested, and the T/C (endpoint: mean survival time, dose: 100.0 mg/kg/injection, schedule: Q04DX002 (ip), vehicle: Klucel (hydroxypropylcellulose) (HPC)) was 93 % of control, the T/C (endpoint: mean survival time, dose: 200.0 mg/kg/injection, schedule: Q04DX002 (ip), vehicle: Klucel (hydroxypropylcellulose) (HPC)) was 100 % of control and the T/C (endpoint: mean survival time, dose: 400.0 mg/kg/injection, schedule: Q04DX002 (ip), vehicle: Klucel (hydroxypropylcellulose) (HPC)) was 107 % of control.

In the case of Oc1ccccc1C=Nc1cc(Cl)ccc1O, the T/C [1] is reported as 97 % of control, the T/C [2] is reported as 95 % of control and the T/C [3] is reported as 103 % of control.

Source: PubChem BioAssay AID248 (DTP/NCI, 2004)
